Laboratory results as given in ChEMBL document CHEMBL1221210, “A Cdc7 kinase inhibitor restricts initiation of DNA replication and has antitumor activity” (Nat Chem Biol, 2008).
Activity calls are given as the source filed them. The calls are words filed in the database; no cut-off is given here.

How the values were obtained:
[1] = test system: HCT-15; experiment: Antiproliferative activity against human HCT15 cells expressing p53 gene after 72 hrs by proliferative assay; type: functional, cell-based; conditions: HCT-15, 72 h
[2] = test system: Jurkat; experiment: Induction of cell cycle arrest in p53 deficient human Jurkat cells assessed as accumulation at subG1 phase at 100 uM after 24hrs by FACS analysis; type: functional
[3] = test system: PC-3; experiment: Antiproliferative activity against human PC3 cells expressing p53 gene after 72 hrs by proliferative assay; type: functional, cell-based; conditions: PC-3, 72 h
[4] = test system: COLO 205; experiment: Induction of cell cycle arrest in p53 deficient human COLO205 cells assessed as accumulation at subG1 phase at 100 uM after 24hrs by FACS analysis; type: functional
[5] = test system: MCF7; experiment: Induction of cell cycle arrest in human MCF7 cells expressing p53 gene assessed as accumulation at subG1 phase at 100 uM after 24hrs by FACS analysis; type: functional
[6] = test system: SF-268; experiment: Antiproliferative activity against p53 deficient human SF268 cells after 72 hrs; type: functional, cell-based; conditions: SF-268, 72 h
[7] = test system: NHDF; experiment: Induction of cell cycle arrest in NHDF expressing p53 gene assessed as accumulation at subG1 phase at 100 uM after 24hrs by FACS analysis; type: cell-based; conditions: human
[8] = test system: SF-539; experiment: Antiproliferative activity against human SF539 cells expressing p53 gene after 72 hrs by proliferative assay; type: functional, cell-based; conditions: SF-539, 72 h
[9] = test system: A2780; experiment: Induction of cell cycle arrest in human A2780 cells expressing p53 gene assessed as accumulation at subG1 phase at 100 uM after 24hrs by FACS analysis; type: functional
[10] = test system: NHDF; experiment: Antiproliferative activity against NHDF expressing p53 gene after 72 hrs by proliferative assay; type: cell-based; conditions: Homo sapiens
[11] = test system: SF-539; experiment: Induction of cell cycle arrest in human SF539 cells expressing p53 gene assessed as accumulation at subG1 phase at 100 uM after 24hrs by FACS analysis; type: functional
[12] = Induction of cell cycle arrest in p53 deficient human HCT116-E6 cells assessed as accumulation at subG1 phase at 100 uM after 24hrs by FACS analysis; type: functional
[13] = test system: MCF7; experiment: Antiproliferative activity against human MCF7 cells expressing p53 gene after 72 hrs by proliferative assay; type: functional, cell-based; conditions: MCF7, 72 h
[14] = Antiproliferative activity against p53 deficient human A2780/E6 cells after 72 hrs by proliferative assay; type: functional, cell-based; conditions: A2780/E6, 72 h
[15] = test system: K562; experiment: Induction of cell cycle arrest in p53 deficient human K562 cells assessed as accumulation at subG1 phase at 100 uM after 24hrs by FACS analysis; type: functional
[16] = test system: SF-268; experiment: Induction of cell cycle arrest in p53 deficient human SF268 cells assessed as accumulation at subG1 phase at 100 uM after 24 hrs FACS analysis; type: functional
[17] = Antiproliferative activity against p53 deficient human HCT116/E6 cells after 72 hrs by proliferative assay; type: functional, cell-based; conditions: HCT116-E6, 72 h
[18] = test system: SW480; experiment: Induction of cell cycle arrest in p53 deficient human SW480 cells assessed as accumulation at subG1 phase at 100 uM after 24hrs by FACS analysis; type: functional
[19] = test system: PC-3; experiment: Induction of cell cycle arrest in human PC3 cells expressing p53 gene assessed as accumulation at subG1 phase at 100 uM after 24hrs by FACS analysis; type: functional
[20] = test system: HCT-15; experiment: Induction of cell cycle arrest in human HCT15 cells expressing p53 gene assessed as accumulation at subG1 phase at 100 uM after 24hrs by FACS analysis; type: functional
[21] = test system: Jurkat; experiment: Antiproliferative activity against p53 deficient human Jurkat cells after 72 hrs by proliferative assay; type: functional, cell-based
[22] = test system: HeLa; experiment: Induction of cell cycle arrest in p53 deficient human HeLa cells assessed as assessed as accumulation at subG1 phase at 100 uM after 24hrs by FACS analysis; type: functional
[23] = test system: A2780; experiment: Antiproliferative activity against human A2780 cells expressing p53 gene after 72 hrs by proliferative assay; type: functional, cell-based; conditions: A2780, 72 h
[24] = test system: COLO 205; experiment: Antiproliferative activity against p53 deficient human COLO205 cells after 72 hrs; type: functional, cell-based; conditions: COLO 205, 72 h
[25] = test system: K562; experiment: Antiproliferative activity against p53 deficient human K562 cells after 72 hrs; type: functional, cell-based; conditions: K562, 72 h
[26] = test system: HCT-116; experiment: Induction of cell cycle arrest in human HCT116 cells expressing p53 gene assessed as accumulation at subG1 phase at 100 uM after 24hrs by FACS analysis; type: functional
[27] = test system: OVCAR-8; experiment: Antiproliferative activity against p53 deficient human OVCAR8 cells after 72 hrs by proliferative assay; type: functional, cell-based; conditions: OVCAR-8, 72 h
[28] = Induction of cell cycle arrest in p53 deficient human A2780/E6 cells as accumulation at subG1 phase at 100 uM after 24hrs by FACS analysis; type: functional
[29] = test system: OVCAR-8; experiment: Induction of cell cycle arrest in p53 deficient human OVCAR8 cells assessed as accumulation at subG1 phase at 100 uM after 24hrs by FACS analysis; type: functional
[30] = test system: U2OS; experiment: Induction of cell cycle arrest in human U2OS cells expressing p53 gene assessed as accumulation at subG1 phase at 100 uM after 24hrs by FACS analysis; type: functional
[31] = test system: SW480; experiment: Antiproliferative activity against p53 deficient human SW480 cells after 72 hrs by proliferative assay; type: functional, cell-based; conditions: SW480, 72 h
[32] = test system: HCT-116; experiment: Antiproliferative activity against human HCT116 cells expressing p53 gene after 72 hrs by proliferative assay; type: functional, cell-based; conditions: HCT-116, 72 h
[33] = test system: HeLa; experiment: Antiproliferative activity against p53 deficient human HeLa cells after 72 hrs; type: functional, cell-based
[34] = test system: U2OS; experiment: Antiproliferative activity against human U2OS cells expressing p53 gene after 72 hrs by proliferative assay; type: functional, cell-based
[35] = test system: HCT-15; experiment: Induction of cell cycle arrest in human HCT15 cells expressing p53 gene assessed as accumulation at subG1 phase at 0.1 uM after 24hrs by FACS analysis; type: functional
[36] = test system: MCF7; experiment: Induction of cell cycle arrest in human MCF7 cells expressing p53 gene assessed as accumulation at subG1 phase at 0.1 uM after 24hrs by FACS analysis; type: functional
[37] = test system: NHDF; experiment: Induction of cell cycle arrest in NHDF expressing p53 gene assessed as accumulation at subG1 phase at 0.1 uM after 24hrs by FACS analysis; type: cell-based; conditions: human
[38] = test system: SW480; experiment: Induction of cell cycle arrest in p53 deficient human SW480 cells assessed as accumulation at subG1 phase at 0.1 uM after 24hrs by FACS analysis; type: functional
[39] = test system: PC-3; experiment: Induction of cell cycle arrest in human PC3 cells expressing p53 gene assessed as accumulation at subG1 phase at 0.1 uM after 24hrs by FACS analysis; type: functional
[40] = test system: K562; experiment: Induction of cell cycle arrest in p53 deficient human K562 cells assessed as accumulation at subG1 phase at 0.1 uM after 24hrs by FACS analysis; type: functional
[41] = test system: A2780; experiment: Induction of cell cycle arrest in human A2780 cells expressing p53 gene assessed as accumulation at subG1 phase at 0.1 uM after 24hrs by FACS analysis; type: functional
[42] = Induction of cell cycle arrest in p53 deficient human HCT116-E6 cells assessed as accumulation at subG1 phase at 0.1 uM after 24hrs by FACS analysis; type: functional
[43] = Induction of cell cycle arrest in p53 deficient human A2780/E6 cells as accumulation at subG1 phase at 0.1 uM after 24hrs by FACS analysis; type: functional
[44] = test system: HeLa; experiment: Induction of cell cycle arrest in p53 deficient human HeLa cells assessed as assessed as accumulation at subG1 phase at 0.1 uM after 24hrs by FACS analysis; type: functional
[45] = test system: COLO 205; experiment: Induction of cell cycle arrest in p53 deficient human COLO205 cells assessed as accumulation at subG1 phase at 0.1 uM after 24hrs by FACS analysis; type: functional
[46] = test system: U2OS; experiment: Induction of cell cycle arrest in human U2OS cells expressing p53 gene assessed as accumulation at subG1 phase at 0.1 uM after 24hrs by FACS analysis; type: functional
[47] = test system: SF-268; experiment: Induction of cell cycle arrest in p53 deficient human SF268 cells assessed as accumulation at subG1 phase at 0.1 uM after 24 hrs FACS analysis; type: functional
[48] = test system: OVCAR-8; experiment: Induction of cell cycle arrest in p53 deficient human OVCAR8 cells assessed as accumulation at subG1 phase at 0.1 uM after 24hrs by FACS analysis; type: functional
[49] = test system: Jurkat; experiment: Induction of cell cycle arrest in p53 deficient human Jurkat cells assessed as accumulation at subG1 phase at 0.1 uM after 24hrs by FACS analysis; type: functional
[50] = test system: HCT-116; experiment: Induction of cell cycle arrest in human HCT116 cells expressing p53 gene assessed as accumulation at subG1 phase at 0.1 uM after 24hrs by FACS analysis; type: functional
[51] = test system: SF-539; experiment: Induction of cell cycle arrest in human SF539 cells expressing p53 gene assessed as accumulation at subG1 phase at 0.1 uM after 24hrs by FACS analysis; type: functional
[52] = test system: A2780; experiment: Induction of apoptosis in human A2780 cells assessed as appearance of Mcl1 protein level after 24 hrs; type: functional, cell-based

Compound: O=c1[nH]cc(F)c(=O)[nH]1 [FLUOROURACIL]
- IC50 [1]: 18.2 µM
- Activity [2]: <3%
- IC50 [3]: 13.8 µM
- Activity [4]: <3%
- Activity [5]: <3%
- IC50 [6]: 88 µM
- Activity [7]: < 3%
- IC50 [8]: 50.1 µM
- Activity [9]: <3%
- IC50 [10]: 14.7 µM
- Activity [11]: <3%
- Activity [12]: <3%
- IC50 [13]: 26.7 µM
- IC50 [14]: 38.7 µM
- Activity [15]: <3%
- Activity [16]: <3%
- IC50 [17]: 28.9 µM
- Activity [18]: <3%
- Activity [19]: <3%
- Activity [20]: <3%
- IC50 [21]: 87.7 µM
- Activity [22]: <3%
- IC50 [23]: 7.21 µM
- IC50 [24]: 11.6 µM
- IC50 [25]: > 100 µM
- Activity [26]: 10%
- IC50 [27]: 96.4 µM
- Activity [28]: <3%
- Activity [29]: <3%
- Activity [30]: <3%
- IC50 [31]: 26.3 µM
- IC50 [32]: 6.36 µM
- IC50 [33]: > 100 µM
- IC50 [34]: 13.2 µM

Compound: Nc1ccn([C@@H]2O[C@H](CO)[C@@H](O)C2(F)F)c(=O)n1 [GEMCITABINE]
- IC50 [1]: 0.0099 µM
- Activity [35]: 3%
- IC50 [3]: 0.0026 µM
- Activity [36]: <3%
- IC50 [6]: 0.0103 µM
- IC50 [8]: 0.0198 µM
- Activity [37]: < 3%
- Activity [38]: <3%
- Activity [39]: <3%
- Activity [40]: <3%
- IC50 [10]: 0.0221 µM
- Activity [41]: <3%
- IC50 [13]: 0.0803 µM
- IC50 [14]: 0.0026 µM
- Activity [42]: <3%
- Activity [43]: <3%
- Activity [44]: <3%
- IC50 [17]: 0.896 µM
- Activity [45]: <3%
- IC50 [21]: 0.0453 µM
- IC50 [23]: 0.0166 µM
- Activity [46]: <3%
- IC50 [24]: 0.0514 µM
- Activity [47]: <3%
- IC50 [25]: 0.746 µM
- Activity [48]: <3%
- Activity [49]: >20%
- Activity [50]: <3%
- IC50 [27]: 0.0026 µM
- Activity [51]: <3%
- IC50 [31]: 0.0136 µM
- IC50 [32]: 0.0097 µM
- IC50 [33]: > 10 µM
- IC50 [34]: 0.0907 µM

Compound: CN1CC[C@H](c2c(O)cc(O)c3c(=O)cc(-c4ccccc4Cl)oc23)[C@H](O)C1
- inhibition [52]: Active
